Each compound was assayed against T1, HIV-integrase (Human immunodeficiency virus type 1 group M subtype B, UniProt P12497) (assay: HIV-Integrase Inhibition Activity (SPA bead integration assay with P33 labeled target DNA)). Settings: recombinant integrase, class symbols; read-out: in vitro activity.
T1 construct: Recombinant integrase (0.26 ng) was incubated with the beads
Format: biochemical
Summary of the method: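 Strand integration read as bead-proximity CPM after P33 target DNA (0.1 fmol) and inhibitor were added to washed integrase–substrate DNA complexes on SPA beads. Enzyme bound 90 min at 37° C; EDTA (10 mM final) terminated reaction; IC50 graded A/B/C.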
CN(C)C(=O)C(=O)NC12CCC(CC1)Cn1c2nc(C(=O)NCc2cccc(-n3cncn3)c2)c(O)c1=O [Example 125, N′-(3-Hydroxy-4-oxo-2-((3-(1H-1,2,4-triazol-1-yl)benzyl)carbamoyl)-6,7,8,9-tetrahydro-7,10-ethanopyrimido[1,2-a]azepin-10(4H)-yl)-N,N-dimethylethanediamide] was tested, and the IC50 was less than 10 nM. With CN(C)C(=O)C(=O)NC12CCC(CC1)Cn1c2nc(C(=O)NCc2cccc(-n3cccc3)c2)c(O)c1=O [Example 126, N′-(3-Hydroxy-4-oxo-2-((3-(1H-pyrrol-1-yl)benzyl)carbamoyl)-6,7,8,9-tetrahydro-7,10-ethanopyrimido[1,2-a]azepin-10(4H)-yl)-N,N-dimethylethanediamide] the IC50 was less than 10 nM. Compound CN1CCN(c2cccc(CNC(=O)c3nc4n(c(=O)c3O)CC3CCC4(NC(=O)C(=O)N(C)C)CC3)c2)CC1 [Example 127, N′-(3-Hydroxy-2-((3-(4-methyl-1-piperazinyl)benzyl)carbamoyl)-4-oxo-6,7,8,9-tetrahydro-7,10-ethanopyrimido[1,2-a]azepin-10(4H)-yl)-N,N-dimethylethanediamide] has an IC50 of 10 to 100 nM. For CN(C)C(=O)C(=O)NC12CCC(CC1)Cn1c2nc(C(=O)NCc2ccc(F)c(C3CC3)c2)c(O)c1=O [Example 128, N′-(2-((3-Cyclopropyl-4-fluorobenzyl)carbamoyl)-3-hydroxy-4-oxo-6,7,8,9-tetrahydro-7,10-ethanopyrimido[1,2-a]azepin-10(4H)-yl)-N,N-dimethylethanediamide], the IC50 was less than 10 nM. In the case of CN(C)C(=O)C(=O)NC12CCC(CC1)Cn1c2nc(C(=O)NCc2ccccc2)c(O)c1=O [Example 129, N′-(2-(Benzylcarbamoyl)-3-hydroxy-4-oxo-6,7,8,9-tetrahydro-7,10-ethanopyrimido[1,2-a]azepin-10(4H)-yl)-N,N-dimethylethanediamide], the IC50 is reported as less than 10 nM. In the case of CN(C)C(=O)C(=O)NC12CCC(CC1)Cn1c2nc(C(=O)NCCCc2ccc(F)cc2)c(O)c1=O [Example 130, N′-(2-((3-(4-Fluorophenyl)propyl)carbamoyl)-3-hydroxy-4-oxo-6,7,8,9-tetrahydro-7,10-ethanopyrimido[1,2-a]azepin-10(4H)-yl)-N,N-dimethylethanediamide], the IC50 is reported as less than 10 nM. Work on CN(C)C(=O)C(=O)NC12CCC(CC1)Cn1c2nc(C(=O)NCCCc2ccc(Cl)c(Cl)c2)c(O)c1=O [Example 131, N′-(2-((3-(3,4-Dichlorophenyl)propyl)carbamoyl)-3-hydroxy-4-oxo-6,7,8,9-tetrahydro-7,10-ethanopyrimido[1,2-a]azepin-10(4H)-yl)-N,N-dimethylethanediamide] yielded an IC50 of 10 to 100 nM. CN(C)C(=O)C(=O)NC12CCC(CC1)Cn1c2nc(C(=O)NCc2ccc(F)c(C#N)c2)c(O)c1=O [Example 132, N′-(2-((3-Cyano-4-fluorobenzyl)carbamoyl)-3-hydroxy-4-oxo-6,7,8,9-tetrahydro-7,10-ethanopyrimido[1,2-a]azepin-10(4H)-yl)-N,N-dimethylethanediamide] gave an IC50 of less than 10 nM. COc1cc(CNC(=O)c2nc3n(c(=O)c2O)CC2CCC3(NC(=O)C(=O)N(C)C)CC2)ccc1F [Example 133, N′-(2-((4-Fluoro-3-methoxybenzyl)carbamoyl)-3-hydroxy-4-oxo-6,7,8,9-tetrahydro-7,10-ethanopyrimido[1,2-a]azepin-10(4H)-yl)-N,N-dimethylethanediamide] showed an IC50 of less than 10 nM. COCCN(C)C(=O)C(=O)NC12CCC(CC1)Cn1c2nc(C(=O)NCc2ccc(F)c(C)c2)c(O)c1=O [Example 134, N′-(2-((4-Fluoro-3-methylbenzyl)carbamoyl)-3-hydroxy-4-oxo-6,7,8,9-tetrahydro-7,10-ethanopyrimido[1,2-a]azepin-10(4H)-yl)-N-(2-methoxyethyl)-N-methylethanediamide] showed an IC50 of less than 10 nM. COCCN(C)C(=O)C(=O)NC12CCC(CC1)Cn1c2nc(C(=O)NCc2ccc(F)c(Cl)c2)c(O)c1=O [Example 135, N′-(2-((3-Chloro-4-fluorobenzyl)carbamoyl)-3-hydroxy-4-oxo-6,7,8,9-tetrahydro-7,11-ethanopyrimido[1,2-a]azepin-10(4H)-yl)-N-(2-methoxyethyl)-N-methylethanediamide] was tested, and the IC50 was less than 10 nM. Cn1cncc1CN1CCN(C(=O)C(=O)NC23CCC(CC2)Cn2c3nc(C(=O)NCc3ccc(F)cc3)c(O)c2=O)CC1 [Example 136, N-(4-Fluorobenzyl)-3-hydroxy-10-(((4-((1-methyl-1H-imidazol-5-yl)methyl)-1-piperazinyl)(oxo)acetyl)amino)-4-oxo-4,6,7,8,9,10-hexahydro-7,10-ethanopyrimido[1,2-a]azepine-2-carboxamide] showed an IC50 of less than 10 nM. Cn1ccnc1CN1CCN(C(=O)C(=O)NC23CCC(CC2)Cn2c3nc(C(=O)NCc3ccc(F)cc3)c(O)c2=O)CC1 [Example 137, N-(4-Fluorobenzyl)-3-hydroxy-10-(((4-((1-methyl-1H-imidazol-2-yl)methyl)-1-piperazinyl)(oxo)acetyl)amino)-4-oxo-4,6,7,8,9,10-hexahydro-7,10-ethanopyrimido[1,2-a]azepine-2-carboxamide] showed an IC50 of less than 10 nM. In the case of Cc1cc(C(=O)N2CCN(C(=O)C(=O)NC34CCC(CC3)Cn3c4nc(C(=O)NCc4ccc(F)cc4)c(O)c3=O)CC2)no1 [Example 139, N-(4-Fluorobenzyl)-3-hydroxy-10-(((4-((5-methyl-3-isoxazolyl)carbonyl)-1-piperazinyl)(oxo)acetyl)amino)-4-oxo-4,6,7,8,9,10-hexahydro-7,10-ethanopyrimido[1,2-a]azepine-2-carboxamide], the IC50 is reported as less than 10 nM. O=C(NC12CCC(CC1)Cn1c2nc(C(=O)NCc2ccc(F)cc2)c(O)c1=O)C(=O)N1CCN(C(=O)c2ccccn2)CC1 [Example 140, N-(4-Fluorobenzyl)-3-hydroxy-4-oxo-10-((oxo(4-(2-pyridinylcarbonyl)-1-piperazinyl)acetyl)amino)-4,6,7,8,9,10-hexahydro-7,10-ethanopyrimido[1,2-a]azepine-2-carboxamide] was tested, and the IC50 was less than 10 nM. COCC(=O)N1CCN(C(=O)C(=O)NC23CCC(CC2)Cn2c3nc(C(=O)NCc3ccc(F)cc3)c(O)c2=O)CC1 [Example 141, N-(4-Fluorobenzyl)-3-hydroxy-10-(((4-(methoxyacetyl)-1-piperazinyl)(oxo)acetyl)amino)-4-oxo-4,6,7,8,9,10-hexahydro-7,10-ethanopyrimido[1,2-a]azepine-2-carboxamide] showed an IC50 of less than 10 nM. Work on O=C(NC12CCC(CC1)Cn1c2nc(C(=O)NCc2ccc(F)cc2)c(O)c1=O)C(=O)N1CCN(C(=O)c2cccs2)CC1 [Example 142, N-(4-Fluorobenzyl)-3-hydroxy-4-oxo-10-((oxo(4-(2-thiophenylcarbonyl)-1-piperazinyl)acetyl)amino)-4,6,7,8,9,10-hexahydro-7,10-ethanopyrimido[1,2-a]azepine-2-carboxamide] yielded an IC50 of less than 10 nM. Work on O=C(NC12CCC(CC1)Cn1c2nc(C(=O)NCc2ccc(F)cc2)c(O)c1=O)C(=O)N1CCN(C(=O)c2ccco2)CC1 [Example 143, N-(4-Fluorobenzyl)-10-(((4-(2-furanylcarbonyl)-1-piperazinyl)(oxo)acetyl)amino)-3-hydroxy-4-oxo-4,6,7,8,9,10-hexahydro-7,10-ethanopyrimido[1,2-a]azepine-2-carboxamide] yielded an IC50 of less than 10 nM.
